Experimental data from paper PMC5765548 (Journal of medicinal chemistry, 2017).

What was measured:
ALDH1B1 = target: T1, ALDH1B1 (Homo sapiens, UniProt P30837); settings: read-out: IC50 ALDH1B1; 200 μM propionaldehyde, 500 μM NAD+, 25 °C
T1 sequence (P30837 18-517): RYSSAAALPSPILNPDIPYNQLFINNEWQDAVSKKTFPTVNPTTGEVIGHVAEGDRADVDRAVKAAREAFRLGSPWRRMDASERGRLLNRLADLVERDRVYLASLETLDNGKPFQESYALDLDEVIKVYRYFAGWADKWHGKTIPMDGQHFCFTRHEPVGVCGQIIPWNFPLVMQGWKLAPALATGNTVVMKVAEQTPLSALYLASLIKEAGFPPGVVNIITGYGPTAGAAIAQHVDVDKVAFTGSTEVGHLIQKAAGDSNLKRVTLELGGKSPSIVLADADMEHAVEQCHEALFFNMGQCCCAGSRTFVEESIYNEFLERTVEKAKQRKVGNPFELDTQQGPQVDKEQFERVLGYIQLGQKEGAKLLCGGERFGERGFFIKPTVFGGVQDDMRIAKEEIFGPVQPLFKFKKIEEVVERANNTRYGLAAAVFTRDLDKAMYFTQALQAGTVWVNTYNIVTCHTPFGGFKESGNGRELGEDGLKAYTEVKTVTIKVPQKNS

ALDH1A1 = target: T2, ALDH1A1 (Homo sapiens, UniProt P00352); experiment: ALDH1A1 dehydrogenase activity, NADH formation at 340 nm; type: biochemical; settings: read-out: IC50 ALDH1A1; 100 μM propionaldehyde, 200 μM NAD+, 1% DMSO, pH 7.5, 25 °C
T2 sequence (P00352 1-501): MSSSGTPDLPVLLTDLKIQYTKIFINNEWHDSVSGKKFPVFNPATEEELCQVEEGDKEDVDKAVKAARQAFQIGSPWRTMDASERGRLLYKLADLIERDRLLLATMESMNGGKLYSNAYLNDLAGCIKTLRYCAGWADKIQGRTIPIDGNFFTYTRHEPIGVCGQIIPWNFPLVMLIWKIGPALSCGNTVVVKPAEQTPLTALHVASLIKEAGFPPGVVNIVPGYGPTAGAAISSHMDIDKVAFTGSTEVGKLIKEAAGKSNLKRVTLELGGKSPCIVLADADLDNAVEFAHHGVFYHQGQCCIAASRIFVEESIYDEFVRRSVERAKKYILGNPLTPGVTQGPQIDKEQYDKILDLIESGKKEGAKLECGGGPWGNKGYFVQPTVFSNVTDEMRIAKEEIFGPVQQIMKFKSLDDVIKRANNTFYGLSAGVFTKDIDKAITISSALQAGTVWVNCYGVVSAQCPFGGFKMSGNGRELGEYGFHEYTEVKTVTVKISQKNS

ALDH3A1 = target: T3, ALDH3A1 (Homo sapiens, UniProt P30838); experiment: ALDH3A1 dehydrogenase activity; type: biochemical; settings: read-out: IC50 ALDH3A1; 300 μM benzaldehyde, 300 μM NADP+, pH 7.5
T3 sequence (P30838 1-453): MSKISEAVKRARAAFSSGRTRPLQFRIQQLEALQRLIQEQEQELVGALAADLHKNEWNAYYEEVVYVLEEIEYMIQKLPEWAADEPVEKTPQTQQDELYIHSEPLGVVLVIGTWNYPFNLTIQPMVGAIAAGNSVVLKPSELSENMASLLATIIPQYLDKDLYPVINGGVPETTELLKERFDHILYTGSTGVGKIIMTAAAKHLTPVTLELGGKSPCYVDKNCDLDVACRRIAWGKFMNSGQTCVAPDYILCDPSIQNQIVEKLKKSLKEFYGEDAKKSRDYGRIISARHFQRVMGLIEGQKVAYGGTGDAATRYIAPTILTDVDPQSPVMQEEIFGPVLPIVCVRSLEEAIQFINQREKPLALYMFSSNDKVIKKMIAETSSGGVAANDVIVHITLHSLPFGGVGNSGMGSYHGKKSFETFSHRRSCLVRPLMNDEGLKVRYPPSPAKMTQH

Measured: IC50

COC(=O)C(C)Oc1ccc2c(C)cc(=O)oc2c1 (stereo not drawn) [Compound 4]
> 100 µM: all assays above
